Common to all, as to assay: NCI-60 cell line screen, 48 h
Assay [1] has as its system CAKI-1.
Assay [2] deals with HCC 2998.
Assay [3] concerns HCT-15.
Assay [4] concerns HOP-92.
For assay [5], the system named is IGROV-1.
The subject of assay [6] is M14.
Assay [7] relates to NCI-H226.
For assay [8], the system named is OVCAR-3.
For assay [9], the system named is OVCAR-4.
Assay [10] concerns OVCAR-5.
The test system of assay [11] is OVCAR-8.
Assay [12] concerns RXF 393.
Assay [13] deals with SF-295.
Assay [14] deals with SK-MEL-28.
In assay [15] the test system is SK-MEL-2.
Assay [16] relates to SK-MEL-5.
Assay [17] deals with SN12C.
In assay [18] the test system is SNB-19.
For assay [19], the system named is TK-10.
The subject of assay [20] is UO-31.

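Growth conditions: 96-well plates. Treatment: test compound, 48 hours, 5 concentrations. Analysis: linear interpolation between bracketing concentrations; unreached endpoints set to highest concentration. The concentration for 50% growth inhibition is given as GI50.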 The source made the active and inactive calls. Rule as the data show it: active = GI50 up to about 1.1 µM and inactive = higher.

Take `COc1c2c(c(O)c3c4c(c(C)cc13)C1OC3(C(OC)OC5CC(C)(O)C(OC6CC(C)(O)C(O)C(C)O6)C(C)O5)OC1C(OC)(O4)C31CO1)C(=O)C(O)CC2OC1CC(C)(O)C(OC(C)=O)C(C)O1` (centres undefined): the GI50 in assay [1] is 0.052 µM (active); in assay [2] it was < 0.01 µM (active); in [3], 0.0767 µM; in [4], < 0.01 µM (active); in assay [5], < 0.01 µM (active); in assay [6], < 0.01 µM (active). Further, the GI50 in assay [7], in [8], in [9], in [10], in assay [11] and in assay [12] was < 0.01 µM (active) throughout. The GI50 in assay [13], in [14], in assay [15], in [16], in [17] and in assay [18] was < 0.01 µM (active) in each case. The GI50 in assay [19] was < 0.01 µM (active); in assay [20], 0.0356 µM (active).

In the case of `CSC(=N)NNC(=O)CCC(=O)Nc1ccccc1C(F)(F)F`, the GI50 in assay [1] was > 100 µM (inactive); in assay [2], > 100 µM (inactive); in assay [3] it was above 100 µM; in assay [4], > 100 µM (inactive); in [5] it was > 100 µM (inactive); in assay [6] it was > 100 µM (inactive). Also, the GI50 in assay [7], in [8], in [9], in assay [10], in assay [11] and in assay [12] was > 100 µM (inactive) each time. In addition, the GI50 in assay [13], in [14], in assay [15], in [16], in assay [17] and in [18] was > 100 µM (inactive) throughout. Moreover, the GI50 in [19] and in assay [20] was > 100 µM (inactive) each time.

As for `COC(=O)c1c2n(c3ccccc13)C[C@H]1OC(C)(C)O[C@@H]21`, the GI50 in assay [1] is > 65.6 µM (inactive); in [2] it was > 100 µM (inactive); in assay [3], above 100 µM; in assay [4], > 100 µM (inactive); in [5], > 100 µM (inactive); in assay [6], > 100 µM (inactive). In addition, the GI50 in assay [7], in [8], in assay [9], in [10], in assay [11] and in assay [12] was > 100 µM (inactive) in each case. The GI50 in assay [13], in [14], in assay [15], in assay [16], in assay [17] and in [18] was > 100 µM (inactive) each time. The GI50 in assay [19] and in assay [20] was > 100 µM (inactive) throughout.

With `CCN(CC)CC(=N)N(CC)c1ccccc1`, the GI50 is > 100 µM (inactive) in assay [1]; 93.3 µM (inactive) in assay [2]; above 100 µM in [3]; > 100 µM (inactive) in assay [4]; > 100 µM (inactive) in [5]; > 100 µM (inactive) in [6]. Also, the GI50 in [7], in assay [8], in assay [9], in [10], in [11] and in assay [12] was > 100 µM (inactive) throughout. Moreover, the GI50 in assay [13], in assay [14], in assay [15], in [16], in assay [17] and in assay [18] was > 100 µM (inactive) in each case. Besides, the GI50 in [19] and in [20] was > 100 µM (inactive) each time.

On to `CCN(CC)Cc1ccc2cccnc2c1O`, for which the GI50 was 2.47 µM (inactive) in [1]; 11.1 µM (inactive) in [2]; 0.365 µM in assay [3]; 11.6 µM (inactive) in [4]; 2.77 µM (inactive) in assay [5]; 6.08 µM (inactive) in [7]. Also, the GI50 was 2.88 µM (inactive) in assay [8]; 16.4 µM (inactive) in assay [9]; 10.3 µM (inactive) in assay [10]; 2.03 µM (inactive) in [11]; 93.1 µM (inactive) in [12]; 3.48 µM (inactive) in assay [13]. For the same compound, the GI50 in [14] is 7.35 µM (inactive); in [15], 20.1 µM (inactive); in assay [16], 3.54 µM (inactive); in assay [17], 4.12 µM (inactive); in assay [18], 18.5 µM (inactive); in assay [19] it was 9.64 µM (inactive). Besides, the GI50 in assay [20] is 1.88 µM (inactive).

On to `COc1ccc(/C=C/c2cnccn2)cc1OC`, for which the GI50 in [1] was > 10 µM (inactive); in assay [2] it was > 10 µM (inactive); in assay [3], above 10 µM; in assay [4] it was > 10 µM (inactive); in assay [5], > 10 µM (inactive); in assay [6], > 10 µM (inactive). Besides, the GI50 in [7], in assay [8], in assay [9], in assay [10], in [11] and in [12] was > 10 µM (inactive) each time. In addition, the GI50 in assay [13], in [14], in assay [15], in assay [16], in assay [17] and in assay [18] was > 10 µM (inactive) in each case. Moreover, the GI50 in assay [19] and in assay [20] was > 10 µM (inactive) each time.

`COc1cc(C2c3cc4c(cc3OC(N3CCCCC3)C2C)OCO4)cc(OC)c1OC` (centres undefined): the GI50 in assay [1] was 2.46 µM (inactive); in assay [2], 2.9 µM (inactive); in assay [3] it was 3.65 µM; in [4], 10.4 µM (inactive); in assay [5] it was 4.62 µM (inactive); in [6], 2.83 µM (inactive). For the same compound, the GI50 was 3.39 µM (inactive) in assay [7]; 1.9 µM (inactive) in assay [8]; 13 µM (inactive) in assay [9]; 12.7 µM (inactive) in [10]; 5.11 µM (inactive) in [11]; 2.15 µM (inactive) in [12]. The GI50 in assay [13] was 1.75 µM (inactive); in [14] it was 10.5 µM (inactive); in assay [15], 3.45 µM (inactive); in [16] it was 2.62 µM (inactive); in assay [17], 6.07 µM (inactive); in assay [18], 3.24 µM (inactive). In addition, the GI50 in assay [19] is 7.71 µM (inactive); in assay [20] it was 5.02 µM (inactive).

For the compound `CC1CCC(O)/C=C/C(=O)OC(C)C(O)/C=C/C(=O)O1` (centres undefined), the GI50 is > 100 µM (inactive) in [1]; > 100 µM (inactive) in assay [2]; above 94 µM in assay [3]; 52.8 µM (inactive) in assay [4]; > 100 µM (inactive) in [5]; > 56.1 µM (inactive) in assay [6]. For the same compound, the GI50 in assay [7] was > 100 µM (inactive); in assay [8] it was 57.1 µM (inactive); in [9], > 100 µM (inactive); in assay [10], > 100 µM (inactive); in assay [11], > 100 µM (inactive); in assay [12], > 62.1 µM (inactive). Further, the GI50 in assay [13], in [14], in assay [15], in [16], in [17] and in assay [18] was > 100 µM (inactive) in each case. Further, the GI50 in assay [19] is > 83.8 µM (inactive); in assay [20], > 100 µM (inactive).

Regarding `CCOC(=O)c1c2ccccc2n2c(=O)n(-c3ccccc3)nnc12`, the GI50 is > 91.4 µM (inactive) in assay [1]; 47.1 µM (inactive) in assay [2]; above 76.9 µM in [3]; > 100 µM (inactive) in assay [4]; 79.3 µM (inactive) in assay [5]; 59 µM (inactive) in [6]. Further, the GI50 in assay [7] is > 40.2 µM (inactive); in assay [8], 17.3 µM (inactive); in assay [9], > 71.8 µM (inactive); in [10] it was > 100 µM (inactive); in assay [11], > 100 µM (inactive); in assay [12], > 55.6 µM (inactive). In addition, the GI50 in [13] was 3.25 µM (inactive); in [14], > 100 µM (inactive); in [15], > 25.8 µM (inactive); in assay [16] it was 15.7 µM (inactive); in [17], > 100 µM (inactive); in assay [18] it was > 100 µM (inactive). Besides, the GI50 in [19] is > 100 µM (inactive); in assay [20], 74.8 µM (inactive).

Take `O=C(O)C(C(=O)O)P(=S)(S)c1ccccc1` (centres undefined): the GI50 was > 100 µM (inactive) in assay [1]; > 100 µM (inactive) in [2]; above 100 µM in assay [3]; > 100 µM (inactive) in assay [4]; > 100 µM (inactive) in [5]; > 100 µM (inactive) in assay [6]. The GI50 in assay [7], in assay [8], in assay [9], in [10], in assay [11] and in [12] was > 100 µM (inactive) in each case. The GI50 in assay [13] was > 100 µM (inactive); in assay [14] it was > 100 µM (inactive); in assay [15] it was > 100 µM (inactive); in assay [16] it was > 31.6 µM (inactive); in [17], > 100 µM (inactive); in [18], > 100 µM (inactive). Moreover, the GI50 in assay [19] and in [20] was > 100 µM (inactive) in each case.

Source of the values: ChEMBL document CHEMBL1201862, “PubChem BioAssay data set” (2004).
